Data published in US20170014432A1, “COMPOSITIONS AND METHODS FOR REDUCING CHRONIC LOW-LEVEL INFLAMMATION” (priority 2014, published 2017).

System: delta-5-desaturase
Assay: Two-week feeding study, AA/DGLA ratio in plasma
Type: in vivo, mice
Conditions: for Average % decrease in AA/DGLA Ratio in Plasma: mice, 36.7 mg/day sesamol palmitate in safflower oil by gavage, low-fat diet
Experimental: To determine the ability of a sesamol derivative of the present invention to inhibit the formation of arachidonic acid, a two-week feeding study was done with two groups of mice with 8 mice in each group. We mixed 4.4 g of sesamol palmitate into 60 ml of safflower oil. This provided a concentration of sesamol palmitate of 73.3 mg/ml. The mice in the sesamol group received 500 μl each day (36.7 mg) via gavage of the sesamol palmitate compound in safflower oil whereas the control group received 500 μl of the safflower oil control. Both groups were maintained on a low-fat diet. 200 μl of blood was drawn at three time points (0, 1, and 2 weeks) for analysis of the fatty acid composition in the plasma.
Since the sesamol derivative, sesamol palmitate, inhibits the enzyme delta-5-desaturase that converts dihomo gamma linolenic acid (DGLA) to arachidonic acid (AA), we choose to look at the decrease in the AA/DGLA ratio as an indication of efficacy of sesamol palmitate in inhibiting the key enzyme. The percent difference between the AA/DGLA ratio in each […] was determined at the starting point and at days 7 and 14. The percent differences in the AA/DGLA per each rat in the active and placebo groups were then averaged.

## CCCCCCCCCCCCCCCC(=O)Oc1ccc2c(c1)OCO2 [Sesamol Palmitate]
Days 0-7
  Average % decrease in AA/DGLA Ratio in Plasma: −25.4%
Days 0-14
  Average % decrease in AA/DGLA Ratio in Plasma: −23.4%
Active group versus placebo group
  Average decrease in the AA/DGLA ratio relative to placebo group: approximately double
